Earlier results, collected in patent US20150209317A1, “Plant Extracts for Improving Cognitive Function” (Kemin Industries, Inc., priority 2014, published 2015).

What was measured:
[1] = tested on: aging mice; settings: RA administration to aging mice
[2] = subchronic administration (Park 2010)

Q: For O=C(/C=C/c1ccc(O)c(O)c1)O[C@H](Cc1ccc(O)c(O)c1)C(=O)O [Rosmarinic acid], which “Catalase (CAT) activity in the brain” value [1] is on record?
A: The value was “increased”.

Q: And the “Malondialdehyde (MDA) in the brain” value [1]?
A: The value was “decreasing”.

Q: And the “Superoxide dismutase (SOD) activity in the brain” value [1]?
A: Its value is “increased”.

Q: What about the “Memory in the Morris water maze spatial task” value [2] of the same compound?
A: Its value is “improved memory”.
